Laboratory results as given in patent publication US8119589B2, “Modulation of CD4+ T cell responses by a tick saliva protein, Salp15 and polypeptides derived therefrom” (University of North Carolina at Charlotte, priority 2004, dated 2012).

Key:
[1] = system: CD8+ cells; assay: Salp15488 binding on cell surface by confocal microscopy; design: species or system mouse
[2] = target: T1, CD4 co-receptor (Homo sapiens, UniProt P01730); assay: Co-immunoprecipitation with His-tagged Salp15 from Jurkat cell lysate; type: binding; details: anti-His
T1 construct: 1-2×10^7 Jurkat, HeLa or HeLa-CD4 cells were lysed; endogenous in cells; host or cells: Jurkat
Method: For coimmunoprecipitation, 1-2×10^7 Jurkat, HeLa or HeLa-CD4 cells were lysed in 20 mM HEPES pH 7.4 containing 150 mM NaCl, 1% Triton-X 100, 0.25% sodium deoxycholate, 25 mM NaF, 2 mM Na3VO4, 1 mM PMSF and protease inhibitors for 15 min on ice. One mg of protein equivalent of the cell lysate was mixed with 50 μg/mL of 6× histidine-tagged-Salp15 or 6×His-tagged Salp13 fused to thioredoxin (29 kD) as a control protein, (Anguita et al., 2002, Das et al., 2001) and immunoprecipitated using an anti-poly-histidine antibody conjugated to agarose, anti-CD4, anti-CD3, anti-CD28 or normal rabbit IgG overnight at 4° C. The immunoprecipitate was run on SDS-PAGE followed by immunoblotting with anti-poly His-HRP, anti-CD4, anti-CD3, anti-CD28 or anti-TCRβ.

[3] = system: CD8+ T cells; assay: Lipid raft reorganization (CTB594 staining) in anti-CD3/CD28 activated CD8+ T cells; type: cell-based, mouse; details: Salp15 pretreatment
Method: For the visualization of lipid rafts, phospho-tyrosine, and cytoskeleton reorganization, CD4^+, CD8^+ or Jurkat cells were cytospun for 10 minutes at 1000 RPM onto positively charged microslides (Fisher Scientific, Hampton, N.H., U.S.A.). The cells were fixed with 3.7% paraformaldehyde (Sigma Chemical Co.) for 15 minutes and stained with CTB594 (Molecular Probes, Eugene, Oreg., U.S.A.), AlexaFluor488 labeled phalloidin (Molecular Probes) or (1:50) biotin-conjugated anti-p-Tyr (PY99) followed by Streptavidin-AlexaFluor594 (1:100, Molecular Probes). For p-LAT and p-PLCγ1 staining, fixed cells were treated with PBS containing 0.1% Triton-X 100 and 100 mM glycine for 15 min at room temperature and stained using rabbit p-LAT (Tyr^191) or rabbit anti-p-PLCγ1 (Tyr^783) probed with anti-rabbit IgG488 (Molecular Probes).
For receptor capping studies, mouse primary B and CD11^+ cells were purified by positive selection using biotin anti-mouse CD45R/B220 clone RA3-6B2 and biotin anti-mouse CD11b clone M1/70 (BD Biosciences Pharmingen) respectively, followed by incubation with magnetic microbeads. The cells were analyzed for receptor capping using 25 μg/mL anti-mouse IgM and 25 μg/mL anti-mouse CD16/CD32 respectively, cross-linked with 25 μg/mL of anti-rat IgG594 for 10 min in the presence or absence of 50 μg/mL of Salp15. […]

[4] = target: T2, sCD4 (Homo sapiens, UniProt P01730); assay: Microtiter binding of sCD4-HRP to plate-bound Salp15 and synthetic peptides; details: plate-bound Salp15 pre-treated with 10 mM DTT
T2 construct: the extracellular four domains of CD4 (sCD4); purchased Research Diagnostics Inc., Flanders, N.J., U.S.A
Method: (§1) Purified sCD4 was coated overnight at 4° C. at the indicated concentrations in 0.1M sodium carbonate buffer (pH 9.5) in 96 well plates. Equimolar amounts of lysozyme were used as a non-specific control. The wells were washed, blocked with 10% FCS/PBS for 1 hr at R.T., and incubated with Salp15 (0.4 μM) for 2 hr at 37° C. Salp15 binding was detected by incubation with horseradish peroxidase (HRP)-conjugated anti-His antibody for 1 hr followed by microwell peroxidase substrate (KPL). The reaction was stopped by adding TMB stop solution (KPL). Chemically synthesized overlapping peptides of Salp15 were purchased from GenScript Corporation (Piscataway, N.J., U.S.A). To study the binding of Salp15 and peptides to sCD4, Salp15 (5 μg) and different peptides (0.5 μg) were coated. The wells were washed and blocked prior to incubation with sCD4-HRP (Research Diagnostics Inc., Flanders, N.J., U.S.A.). For competition assays, indicated concentrations of Salp15 or P11 were added to sCD4-HRP and incubated with plate bound P11 (0.1 μg). To estimate the effect of dithiothreitol (DTT) treatment of Salp15 on binding to sCD4, 0.5 μM Salp15 was treated with 10 mM DTT overnight and immobilized onto microtiter plate followed by blocking and incubation with sCD4-HRP.
Dissociation constants were determined by non-linear curve fit. The results are expressed as the mean±S.E. of 3 to 5 individual experiments.

[5] = target: T3, sCD4 D1-D4 (Homo sapiens, UniProt P01730); assay: Microtiter binding assay with immobilized sCD4 D1-D4; details: Salp15 0.4 μM; similar kinetics to D1-D2
T3 construct: a sCD4 preparation that contains all four extracellular domains (D1-D4)
Method: as §1

[6] = system: fusion of HL2/3 cells expressing HIV envelope proteins with HeLa-CD4 cells; assay: gp120-CD4-mediated cell fusion by luciferase assay (HeLa-CD4 + HL2/3 cells); type: cell-based; details: 10 and 50 ug/ml Salp15; 48 hours
Method: 106 HeLa-CD4 cells, clone 1022 (NIH AIDS Research & Reference Reagent Program, Germantown, Md., U.S.A.) were plated in a 6-well plate and transfected with the plasmid Blue 3′ LTR-luciferase (NIH AIDS Research & Reference Reagent Program) using the lipofectamin method (Invitrogen).
After 24 hours, the cells were trypsinized and mixed with HL2/3 cells that express HIV envelope proteins (NIH AIDS Research & Reference Reagent Program), encoding Gag, Nef, Rev, Tat and Env proteins from HIV (0.2×106 HeLa-CD4+0.2×106 HL2/3) in a 24-well plate at a final volume of 500 uL. The cells were incubated in the presence of 10 and 50 ug/ml of Salp15. The positive control was anti-CD4 Ab and the negative control was anti-CD3.
The cells were harvested after 48 hours, washed with PBS and lysed with 100 uL of Passive Lysis buffer (Promega) per well, for 15 min at RT. The lysates were transferred to Eppendorf tubes, spun at 10,000×g and assessed for Luciferase activity and protein content by the Bradford assay (BioRad). Luciferase activity is an indicator of cell fusion mediated by the interaction of HIV envelope proteins on HL2/3 cells and CD4 on HeLa-CD4 cells.

For “Salp15: secreted salivary protein from Ixodes scapularis, SEQ ID NO: 2; recombinant His-tagged, produced in Drosophila S2 cells”, the “Staining of CD8+ cells” value [1] was “no staining”, the “Co-immunoprecipitation of CD4” value [2] was “co-immunoprecipitated” and the Lipid raft reorganization [3] was “unaffected”. For the same substance, the “CD4 binding after DTT pre-treatment compared to control Salp15” value [4] was “equivalent binding levels”, the “Binding to sCD4 D1-D4” value [5] was “saturable binding” and the “Reduction in cell fusion (luciferase activity)” value [6] was “concentration dependent reduction”.
